Assay results taken from article PMC5913603, “Structure–activity relationships of strigolactones via a novel, quantitative in planta bioassay” (Journal of Experimental Botany, 2018).
Where two headings read alike, the source gives them in different places.

Legend:
[1] = Chemical stability in aqueous solutions, degradation followed by HPLC; format: physicochemical
Procedure: The compounds were first dissolved in methanol (30%) or acetonitrile (50%) and then diluted to the final concentrations with water. The time-course of degradation was monitored by HPLC using an Agilent Technologies HPLC chromatograph 1200 Series equipped with a photo-diode array (PDA) detector, a binary-gradient high-pressure pump, and an automatic sampler. The column used was a LiChroCART® 125-4 LiChrospher® 100 RP-18 (5 μm, Merck Millipore) maintained at 25 °C. The solvents were (A) water + 0.1% formic acid and (B) acetonitrile, and the flow rate was 0.8 ml min^–1. The initial mobile phase, 95% A / 5% B, was held for 3 min and then ramped linearly to 100% B at 23 min and held for 5 min before resetting to the original conditions. The sample injection volume was 10 μl. PDA detection was by absorbance in the 200–600-nm wavelength range. Peak detection was at the optimum wavelength (254 nm) and peak areas were used for quantification. Initial and subsequent measurements of peak area attributable to the tested compound were used to fit exponential half-life curves and to calculate first-order rate constants. Stability data allowed for calculation of the time in hours for half of the tested compound to be hydrolysed (t1/2).
Natural and synthetic SLs are rather sensitive to hydrolysis at pH 7 and are readily decomposed through the cleavage of the D-ring at pH 9.38 ([Vurro et al., 2016]). Therefore, differences in activity among SL analogues may be attributed to their instability in the aqueous medium. In order to address this point, the stability in aqueous solutions of the newly synthesized SL-D-lactams was tested, and compared to the (+)-GR24 standard ([Kannan and Zwanenburg, 2014]; [Halouzka et al., 2018]). Two different conditions were considered, a 30% solution of MeOH in water and a 1:1 solution of acetonitrile in water. As expected, stability in MeOH was highly compromised for all compounds, but to a greater extent for analogues showing both the Michael acceptor function (enol ether bridge) and an unprotected N in the D-lactam ring, as for rac-3, rac-4, rac-5, and rac-7 (Table 1): after a few hours 50% of the compounds were degraded. This was not surprising from a chemical point of view, as the functional group in SL-D-lactams is an aminal, which is more prone to hydrolysis than the acetal of the natural SL skeleton. […] For rac-5, the NH compound in the EGO10 family, the half-life dropped to 2 h.

[2] = test system: Phelipanche aegyptiaca seeds; assay: Germination-inducing activity on parasitic seeds; format: in vivo; conditions: for Fold lower potency than rac-GR24 (germination): compared with rac-GR24; for Concentration at which high germination activity was shown: high activity only at this concentration, germination normalized to rac-GR24 0.1 μM
Procedure: Seeds of Phelipanche aegyptiaca were collected from field-grown tomato in the West Galilee region of Israel. The seeds were stored in glass vials in the dark at room temperature until their use in germination tests. For the preparation of test solutions, the compound to be tested was weighed out very accurately, dissolved in acetone at 10^–2 M and then diluted with sterile distilled water to the desired concentrations. All solutions were prepared just before use. Seeds were surface-sterilized and preconditioned as described by [Bhattacharya et al. (2009)]. Briefly, after exposure for 5 min to 50% (v/v) aqueous solutions of commercial bleach (2% hypochlorite), seeds were rinsed with sterile distilled water. For preconditioning, seeds were placed on glass fibre filter discs using a sterile toothpick (approximately 50 seeds per disc); the glass fibre discs were placed on two filter paper discs, wetted with sterile distilled water, and incubated at 25 °C in the dark for 6 d. The preconditioned seeds were then allowed to dry completely in a laminar flow cabinet, after which they were treated with each compound at five different concentrations: 10^–5 M, 10^–6 M, 10^–7 M, 10^–8 M, and 10^–9 M. Their germination rate was evaluated under a stereomicroscope 7 d after the beginning of the treatment. For each concentration, at least 250 seeds were scored; synthetic SL rac-GR24 was included as a positive control across the same range of concentrations, while a solution of 0.001% acetone in sterile distilled water was included as a negative control. Seeds were scored as germinated if the radicle protruded through the seed coat 1 week after treatment. Germination values were normalized to those of rac-GR24 at 10^–7 M.
Fig. 3. Germination-inducing activity on Phelipanche aegyptiaca seeds of rac-1–9 and of strigol, ST23b, EGO10, and EDOT at different concentrations, compared to rac-GR24 0.1 μM as a positive control and to acetone as a negative control. […] The x-axis indicates the range of concentrations. Data are means (±SD) of n>250 seeds. Confidence intervals at 95% are used to express errors of the means. The data for rac-1–9 are indicated by ‘D-lactams’.

[3] = target: T1, AtD14 fused to firefly luciferase (D14::LUC) (Arabidopsis thaliana, UniProt Q9SQR3); assay: Luminometer (luciferase) assay: D14::LUC degradation in transgenic Arabidopsis seedlings; format: in vivo; conditions: for Activity in the luciferase assay at 1 μM: weaker than (+)-GR24; for D14 degradation in the luciferase assay: 0.01–100 μM range, racemic mixtures
T1 construct: a pDONOR207 carrying the D14 promoter fused to the D14 CDS; expressed in transfected cells
T1 sequence (Q9SQR3 1-267): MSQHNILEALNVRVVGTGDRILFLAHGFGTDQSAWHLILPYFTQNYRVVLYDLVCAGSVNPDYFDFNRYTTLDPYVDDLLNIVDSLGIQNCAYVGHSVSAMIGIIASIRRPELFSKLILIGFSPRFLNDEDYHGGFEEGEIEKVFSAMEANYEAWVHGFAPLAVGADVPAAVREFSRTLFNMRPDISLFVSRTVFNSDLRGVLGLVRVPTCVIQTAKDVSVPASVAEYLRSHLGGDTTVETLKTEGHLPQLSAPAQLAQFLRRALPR
Procedure: A binary D14p::D14::LUC vector was obtained by LR-recombination (Invitrogen) of a pDONOR207 carrying the D14 promoter fused to the D14 CDS ([Chevalier et al., 2014]) in pGWB435 ([Nakagawa et al., 2007]). Transgenic D14::D14::LUC Arabidopsis plants were generated by agroinfiltration of Col-0 plants using the floral dip method ([Clough and Bent, 1998]). Seeds were surface-sterilized with an 8% aqueous solution of commercial bleach in distilled water for 5 min and rinsed five times with sterile distilled water. Sterile seeds were plated on MS medium (pH 5.8) ([Murashige and Skoog, 1962]) without sucrose solidified with 1.2% Agar, and kept at 4 °C for 3 d (stratification). Seeds were then incubated for 7 d in a growth chamber at 25 °C and a photoperiod of 16 h light/8 h dark. SL analogues and mimics (Figs 1, 2) were accurately weighed and dissolved in acetone at 10^–2 M. Five different concentrations (10^–4 M, 10^–5 M, 10^–6 M, 10^–7 M, 10^–8 M) were prepared by 1:10 serial dilutions in liquid MS medium, together with blank controls containing corresponding water and acetone volumes in the medium. D-Luciferin (potassium salt) stock was prepared at 25 mg ml^–1 in DMSO, aliquoted and stored at –80 °C until use; all other solutions were prepared just before the assay. Using tweezers, 7-d-old Arabidopsis seedlings were placed in a 96-well microtiter plate with their cotyledons facing up (one seedling per well, in 170 µl of liquid MS medium), and 15 µl of luciferin (0.125 mg ml^–1, diluted 1:200 in MS from stock) was added to each well, corresponding to 1.875 µg. The plate was covered with a transparent film with a hole poked above each well to allow for gas exchange. Measurements were taken every 15 min in a multimode reader (LB942 Tristar2 S, Berthold Technologies) for the following 24 h; the signal was allowed to stabilize for 2–3 h in the light before treatments were started by adding 15 µl per well of the different SLs in MS medium, thus reaching a final volume in each well of 200 µl and 9.4 µg ml^– of luciferin. Appropriate blank controls were added as well. Each treatment was applied to a minimum of 16 wells (seedlings), each of which was measured individually over time. The percentage efficacy of each compound molecule was calculated 6 h after treatment as a function of the decrease in D14::LUC-emitted luminescence with respect to (+)-GR24 1 µM (i.e. GR24^5DS), assuming that the latter, minus the drift of the corresponding blank control, had 100% efficacy. For calibration purposes, SL analogues that had already been characterized, namely (±)-ST23b, (±)-EGO10, and (±)-EDOT ([Prandi et al., 2011]), were tested across the same concentration range, along with (±)-strigol (Chiralix, NL). The half maximal-effective concentration (EC50) for (+)-GR24 was calculated by linear regression fitting of the data (n=5, with at least three individual seedlings and values being pooled for each replicate) at the different concentrations, minus the values for acetone-treated samples (negative controls) and normalized in relation to (+)-GR24 0.01 μM, which was set to 0%. Confidence intervals at 95% were used to express errors of the means.
D14 is a target for proteasome-dependent destruction upon interaction with its ligand(s), which explains why fluorescence of D14::GFP fusion proteins is quenched upon SL treatment in transgenic Arabidopsis ([Chevalier et al., 2014]). We exploited this molecular network to implement a quantitative activity assay that inversely correlated luminescence to perception of SL-related molecules in transgenic Arabidopsis expressing D14::LUC under the control of the D14 endogenous promoter. […] We then used the assay to test various SLs in the same range, namely strigol as an example of natural SLs; ST23b, EGO10, and EDOT (Fig. 1, all used as rac mixtures) as examples of active SL analogues; and the new set of SL-D-lactams rac-1–9 (Fig. 2).
Fig. 4. Luciferase assay. […]

[4] = aqueous acetonitrile solution in HPLC vials, pH 6.7, 1:1 acetonitrile:water, 21 °C, pH 6.7, extrapolated from plots of peak area versus time, read-out: Half-life (t1/2, h) ACN:Water, 1:1 (converted)
[5] = aqueous methanol solution in HPLC vials, pH 6.7, 30% MeOH in water, 21 °C, pH 6.7, extrapolated from plots of peak area versus time, read-out: Half-life (t1/2, h) 30% MeOH (converted)
[6] = GraphPad fit, normalized with low acetone control

Structure (SMILES)	half-life at 200 μg ml^–1 [1, 4]	half-life at 200 μg ml^–1 [1, 5]	Activity in the luciferase assay at 1 μM [3]	D14 degradation in the luciferase assay [3]	also measured
CC1=C[C@H](O/C=C2/C(=O)O[C@@H]3c4ccccc4C[C@H]23)N(C(=O)OC(C)(C)C)C1=O (racemic) [rac-1]	720 h	110 h	–	–	Fold lower potency than rac-GR24 (germination) [2]: ~ 100 fold; Concentration at which high germination activity was shown [2]: 10 µM
CC1=C[C@H](O/C=C2/C(=O)O[C@H]3c4ccccc4C[C@@H]23)N(C(=O)OC(C)(C)C)C1=O (racemic) [rac-2]	140 h	21 h	–	–	Concentration at which some germination activity could still be detected ([2]; tested 10^-9 to 10^-5 M): 1 µM
CC1=C[C@H](O/C=C2\Cc3c(n(C)c4ccccc34)C2=O)NC1=O (racemic) [rac-5]	24 h	2 h	–	–	–
CC1=C[C@H](O/C=C2\Cc3c([nH]c4ccccc34)C2=O)N(C(=O)OC(C)(C)C)C1=O (racemic) [rac-6]	528 h	190 h	–	–	–
CC1=C[C@H](Oc2ccc(Br)cc2)NC1=O (racemic) [rac-7]	17 h	11 h	–	–	Fold lower potency than rac-GR24 (germination) [2]: ~ 100 fold; Concentration at which high germination activity was shown [2]: 10 µM
CC1=C[C@H](Oc2ccc(Br)cc2)N(C(=O)OC(C)(C)C)C1=O (racemic) [rac-8]	1080 h	230 h	–	–	–
CC1=C[C@H](O/C=C2/C(=O)O[C@@H]3c4ccccc4C[C@H]23)OC1=O (racemic) [rac-GR24, reference compound]	–	–	–	–	Concentration of maximum germination activity ([2]; concentrations equal to or above): ≥ 0.1 µM
CC1=C[C@H](O/C=C2/C(=O)O[C@@H]3c4ccccc4C[C@H]23)OC1=O [(+)-GR24]	–	–	–	–	half-life at 200 μg ml^–1 ([1]; buffer, pH 6.7, Half-life (t1/2, h) 30% MeOH): 80 h; half-life at 200 μg ml^–1 ([1]; buffer, pH 6.7, Half-life (t1/2, h) ACN:Water, 1:1): 3380 h; HILLSLOPE best-fit value (Table S1) [3, 6]: 0.4764; LOGIC50 best-fit value (Table S1) [3, 6]: -5.791; DC50 ([3]; read-out: EC50 (D14::LUC assay), 6 h after treatment, 0.01–100 μM, n=5): 1620 nM; DC50 ([3]; read-out: EC50 best-fit value (Table S1), GraphPad fit, normalized with low acetone control): 1620 nM
CC1=CC(O/C=C2/C(=O)c3c(c4cc(-c5scc6c5OCCO6)ccc4n3C)C2C)OC1=O (centres unmarked) [EDOT]	–	–	significant activity	induced high levels of D14 degradation	–
CC1=CC(O/C=C2\Cc3c(n(C)c4ccccc34)C2=O)OC1=O (centres unmarked) [EGO10]	–	–	significant activity	induced high levels of D14 degradation	–
CC1=CC(O/C=C2/C(=O)c3c(c4cc(-c5ccc(N(C)C)cc5)ccc4n3C)C2C)OC1=O (centres unmarked) [ST23b]	–	–	significant activity	induced high levels of D14 degradation	–
CC1=C[C@H](O/C=C2/C(=O)O[C@@H]3C4=C(C[C@H]23)[C@@H](O)CCC4(C)C)OC1=O [strigol]	–	–	significant activity	induced high levels of D14 degradation	–
